Results: US7074789B2, “Kinase inhibitors” (Amgen Inc., priority 1999, dated 2006)

Assays:
Assay type in all cases: biochemical
Lck = biological target: T1, Lck (Homo sapiens, UniProt P06239); experiment: Kinase inhibition assay (33P transfer), Lck; details: Table 3; read-out: Lck-1
T1 construct: Kinases are expressed as either kinase domains or full length constructs; made in house
Outline: (§1)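 Steps: express kinase as GST or polyHistidine fusion in E. coli or High Five cells; optionally co-express or mix with regulatory polypeptides; incubate with 33P-ATP and plate-attached poly(Glu,Tyr) 4:1 or poly(Arg,Ser) 3:1; wash with 0.5% phosphoric acid; count by liquid scintillation.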

Lyn = biological target: T2, Lyn (Homo sapiens, UniProt P07948); experiment: Kinase inhibition assay (33P transfer), Lyn; details: Table 6, Lyn-1 kinase inhibition class
T2 construct: Kinases are expressed as either kinase domains or full length constructs; made in house
Outline: (§2)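 Radiometric format: recombinant tagged kinase (catalytic domain or whole protein, sometimes combined with regulatory polypeptides) phosphorylates immobilised poly(Glu,Tyr) 4:1 or poly(Arg,Ser) 3:1 using [33P]ATP. Wells are washed in 0.5% phosphoric acid, then counted. IC50 is taken where substrate labelling falls by half.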

Src = biological target: T3, Src (Homo sapiens, UniProt P12931); experiment: Kinase inhibition assay (33P transfer), Src; details: Table 6, Src-1 kinase inhibition class
T3 construct: Kinases are expressed as either kinase domains or full length constructs; made in house
Outline: as §2

Itk = biological target: T4, Itk (Homo sapiens, UniProt Q08881); experiment: Kinase inhibition assay (33P transfer), Itk; details: Table 3; read-out: Itk-1
T4 construct: Kinases are expressed as either kinase domains or full length constructs; made in house
T4 sequence (Q08881 1-620): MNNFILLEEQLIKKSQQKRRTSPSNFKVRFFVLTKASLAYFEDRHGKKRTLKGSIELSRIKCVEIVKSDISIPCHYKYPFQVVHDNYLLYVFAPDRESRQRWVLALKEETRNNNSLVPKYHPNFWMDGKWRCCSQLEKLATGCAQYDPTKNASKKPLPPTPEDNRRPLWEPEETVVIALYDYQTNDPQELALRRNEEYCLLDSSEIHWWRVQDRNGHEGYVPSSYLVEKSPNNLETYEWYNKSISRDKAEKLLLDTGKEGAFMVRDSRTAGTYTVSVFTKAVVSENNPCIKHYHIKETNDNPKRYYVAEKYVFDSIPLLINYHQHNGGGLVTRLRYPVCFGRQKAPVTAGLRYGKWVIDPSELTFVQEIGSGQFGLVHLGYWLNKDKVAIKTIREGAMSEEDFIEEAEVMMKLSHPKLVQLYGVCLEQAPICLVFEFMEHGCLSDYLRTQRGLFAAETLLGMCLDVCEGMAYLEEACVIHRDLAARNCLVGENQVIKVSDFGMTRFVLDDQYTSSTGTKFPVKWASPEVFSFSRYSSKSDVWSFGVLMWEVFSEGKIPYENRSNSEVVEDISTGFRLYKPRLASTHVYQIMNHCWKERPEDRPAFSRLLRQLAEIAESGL
Outline: as §2

EGFR = biological target: T5, EGFR (Homo sapiens, UniProt P00533); experiment: Kinase inhibition assay (33P transfer), EGFR; details: Table 2, kinase inhibition class; read-out: EGFR-1
T5 construct: Kinases are expressed as either kinase domains or full length constructs; made in house
Outline: as §2

Kdr = biological target: T6, Kdr (Homo sapiens, UniProt P35968); experiment: Kinase inhibition assay (33P transfer), Kdr; details: Table 3; read-out: KDR-1
T6 construct: Kinases are expressed as either kinase domains or full length constructs; made in house
Outline: as §1

Tek = biological target: T7, Tek (Homo sapiens, UniProt Q02763); experiment: Kinase inhibition assay (33P transfer), Tek; details: read-out: Tek-1
T7 construct: Kinases are expressed as either kinase domains or full length constructs; made in house
Outline: as §2

c-Met = biological target: T8, c-Met (Homo sapiens, UniProt P08581); experiment: Kinase inhibition assay (33P transfer), c-Met; details: Table 2, kinase inhibition class; read-out: Met-1
T8 construct: Kinases are expressed as either kinase domains or full length constructs; made in house
Outline: as §2

IGFR-1 = biological target: T9, IGFR-1 (Homo sapiens, UniProt P08069); experiment: Kinase inhibition assay (33P transfer), IGFR-1; details: Table 2, kinase inhibition class
T9 construct: Kinases are expressed as either kinase domains or full length constructs; made in house

PDGFRB = biological target: T10, PDGFRB (Homo sapiens, UniProt P09619); experiment: Kinase inhibition assay (33P transfer), PDGFRB; details: read-out: PDGFRB-1
T10 construct: Kinases are expressed as either kinase domains or full length constructs; made in house

ErbB4 = biological target: T11, ErbB4 (Homo sapiens, UniProt Q15303); experiment: Kinase inhibition assay (33P transfer), ErbB4; details: read-out: ErbB4-1
T11 construct: Kinases are expressed as either kinase domains or full length constructs; made in house

Ret-1 = biological target: T12, Ret-1 (Homo sapiens, UniProt P07949); experiment: Kinase inhibition assay (33P transfer), Ret; details: Table 6, Ret-1 kinase inhibition class
T12 construct: Kinases are expressed as either kinase domains or full length constructs; made in house

FGFR1 = biological target: T13, FGFR1 (Homo sapiens, UniProt P11362); experiment: Kinase inhibition assay (33P transfer), FGFR1; details: read-out: FGFR1-1
T13 construct: Kinases are expressed as either kinase domains or full length constructs; made in house

T7 sequence (Q02763 23-1124, species assumed): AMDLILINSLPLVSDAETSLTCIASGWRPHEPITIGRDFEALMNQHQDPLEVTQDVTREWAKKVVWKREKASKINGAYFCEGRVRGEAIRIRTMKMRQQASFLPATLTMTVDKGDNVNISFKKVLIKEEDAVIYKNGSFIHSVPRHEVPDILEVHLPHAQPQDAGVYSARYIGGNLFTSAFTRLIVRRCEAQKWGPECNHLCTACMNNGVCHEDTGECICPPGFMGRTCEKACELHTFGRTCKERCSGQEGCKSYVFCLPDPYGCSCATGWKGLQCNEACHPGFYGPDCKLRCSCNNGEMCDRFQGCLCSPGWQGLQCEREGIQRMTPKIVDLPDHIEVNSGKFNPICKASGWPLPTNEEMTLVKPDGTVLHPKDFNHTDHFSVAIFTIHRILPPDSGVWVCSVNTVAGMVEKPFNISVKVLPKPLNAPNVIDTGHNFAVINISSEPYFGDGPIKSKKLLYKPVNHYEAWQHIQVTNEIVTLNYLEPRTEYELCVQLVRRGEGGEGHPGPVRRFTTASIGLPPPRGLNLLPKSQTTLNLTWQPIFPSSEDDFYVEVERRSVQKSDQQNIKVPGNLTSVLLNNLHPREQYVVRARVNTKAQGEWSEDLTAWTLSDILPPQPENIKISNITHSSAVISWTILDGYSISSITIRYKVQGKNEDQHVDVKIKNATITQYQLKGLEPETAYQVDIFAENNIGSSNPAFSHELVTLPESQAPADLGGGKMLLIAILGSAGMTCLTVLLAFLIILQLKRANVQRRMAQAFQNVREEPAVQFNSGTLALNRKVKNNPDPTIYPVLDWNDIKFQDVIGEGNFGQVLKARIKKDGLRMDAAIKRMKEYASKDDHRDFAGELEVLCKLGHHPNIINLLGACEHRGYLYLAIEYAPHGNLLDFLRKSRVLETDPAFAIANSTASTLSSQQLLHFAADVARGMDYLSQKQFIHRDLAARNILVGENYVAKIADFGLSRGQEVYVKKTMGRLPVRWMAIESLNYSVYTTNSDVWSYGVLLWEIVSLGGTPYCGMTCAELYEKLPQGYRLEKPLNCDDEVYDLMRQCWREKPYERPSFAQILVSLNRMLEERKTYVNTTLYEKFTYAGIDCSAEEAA
T11 sequence (Q15303 26-1308, species assumed): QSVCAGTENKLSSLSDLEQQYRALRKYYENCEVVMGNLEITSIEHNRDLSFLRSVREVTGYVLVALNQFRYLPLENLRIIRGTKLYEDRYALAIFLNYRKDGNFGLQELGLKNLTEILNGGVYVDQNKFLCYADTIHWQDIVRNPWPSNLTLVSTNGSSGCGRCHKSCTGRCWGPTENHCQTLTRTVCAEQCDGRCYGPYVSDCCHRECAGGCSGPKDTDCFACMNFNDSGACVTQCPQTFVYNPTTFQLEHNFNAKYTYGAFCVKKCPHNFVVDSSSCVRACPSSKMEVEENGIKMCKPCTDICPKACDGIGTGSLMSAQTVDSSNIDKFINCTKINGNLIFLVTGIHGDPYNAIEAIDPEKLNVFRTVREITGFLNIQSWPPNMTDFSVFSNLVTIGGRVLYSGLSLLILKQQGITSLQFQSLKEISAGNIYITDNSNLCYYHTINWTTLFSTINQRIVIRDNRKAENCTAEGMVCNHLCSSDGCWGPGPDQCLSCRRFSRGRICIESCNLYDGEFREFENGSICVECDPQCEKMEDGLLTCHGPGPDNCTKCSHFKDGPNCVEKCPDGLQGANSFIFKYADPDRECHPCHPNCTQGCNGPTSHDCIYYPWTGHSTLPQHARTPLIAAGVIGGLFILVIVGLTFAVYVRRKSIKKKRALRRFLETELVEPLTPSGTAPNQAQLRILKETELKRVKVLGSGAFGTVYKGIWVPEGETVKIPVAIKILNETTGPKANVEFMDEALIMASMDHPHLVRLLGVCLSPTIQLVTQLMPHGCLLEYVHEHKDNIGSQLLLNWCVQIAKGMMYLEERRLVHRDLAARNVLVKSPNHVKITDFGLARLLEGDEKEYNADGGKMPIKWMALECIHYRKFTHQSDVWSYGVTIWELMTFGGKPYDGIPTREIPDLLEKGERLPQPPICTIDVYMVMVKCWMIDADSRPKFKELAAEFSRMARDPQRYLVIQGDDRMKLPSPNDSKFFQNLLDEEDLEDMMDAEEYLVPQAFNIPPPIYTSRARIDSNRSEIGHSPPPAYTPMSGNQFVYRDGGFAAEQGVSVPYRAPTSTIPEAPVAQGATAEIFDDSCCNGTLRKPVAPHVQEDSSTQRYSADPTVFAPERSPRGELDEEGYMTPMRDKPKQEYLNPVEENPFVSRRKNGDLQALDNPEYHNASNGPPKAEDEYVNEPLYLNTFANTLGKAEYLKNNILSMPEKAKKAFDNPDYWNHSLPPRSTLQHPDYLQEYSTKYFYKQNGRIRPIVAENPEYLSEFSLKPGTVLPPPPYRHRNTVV
T1 sequence (P06239 whole entry, species assumed, the tested form may be a part): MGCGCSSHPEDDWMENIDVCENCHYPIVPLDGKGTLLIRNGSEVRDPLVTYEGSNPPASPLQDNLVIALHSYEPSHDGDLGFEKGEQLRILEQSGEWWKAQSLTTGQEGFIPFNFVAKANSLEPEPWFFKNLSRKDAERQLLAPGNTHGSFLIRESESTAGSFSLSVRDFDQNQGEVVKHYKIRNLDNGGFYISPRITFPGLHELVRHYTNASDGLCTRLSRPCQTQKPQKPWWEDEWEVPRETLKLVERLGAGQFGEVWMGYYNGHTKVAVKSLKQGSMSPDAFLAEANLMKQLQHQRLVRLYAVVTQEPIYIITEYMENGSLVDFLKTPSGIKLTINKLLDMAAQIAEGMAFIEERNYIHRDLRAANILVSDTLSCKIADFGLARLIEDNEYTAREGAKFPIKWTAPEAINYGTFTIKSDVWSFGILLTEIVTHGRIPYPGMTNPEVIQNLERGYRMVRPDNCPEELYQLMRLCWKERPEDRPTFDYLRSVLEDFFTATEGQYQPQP
T9 sequence (P08069 31-1367): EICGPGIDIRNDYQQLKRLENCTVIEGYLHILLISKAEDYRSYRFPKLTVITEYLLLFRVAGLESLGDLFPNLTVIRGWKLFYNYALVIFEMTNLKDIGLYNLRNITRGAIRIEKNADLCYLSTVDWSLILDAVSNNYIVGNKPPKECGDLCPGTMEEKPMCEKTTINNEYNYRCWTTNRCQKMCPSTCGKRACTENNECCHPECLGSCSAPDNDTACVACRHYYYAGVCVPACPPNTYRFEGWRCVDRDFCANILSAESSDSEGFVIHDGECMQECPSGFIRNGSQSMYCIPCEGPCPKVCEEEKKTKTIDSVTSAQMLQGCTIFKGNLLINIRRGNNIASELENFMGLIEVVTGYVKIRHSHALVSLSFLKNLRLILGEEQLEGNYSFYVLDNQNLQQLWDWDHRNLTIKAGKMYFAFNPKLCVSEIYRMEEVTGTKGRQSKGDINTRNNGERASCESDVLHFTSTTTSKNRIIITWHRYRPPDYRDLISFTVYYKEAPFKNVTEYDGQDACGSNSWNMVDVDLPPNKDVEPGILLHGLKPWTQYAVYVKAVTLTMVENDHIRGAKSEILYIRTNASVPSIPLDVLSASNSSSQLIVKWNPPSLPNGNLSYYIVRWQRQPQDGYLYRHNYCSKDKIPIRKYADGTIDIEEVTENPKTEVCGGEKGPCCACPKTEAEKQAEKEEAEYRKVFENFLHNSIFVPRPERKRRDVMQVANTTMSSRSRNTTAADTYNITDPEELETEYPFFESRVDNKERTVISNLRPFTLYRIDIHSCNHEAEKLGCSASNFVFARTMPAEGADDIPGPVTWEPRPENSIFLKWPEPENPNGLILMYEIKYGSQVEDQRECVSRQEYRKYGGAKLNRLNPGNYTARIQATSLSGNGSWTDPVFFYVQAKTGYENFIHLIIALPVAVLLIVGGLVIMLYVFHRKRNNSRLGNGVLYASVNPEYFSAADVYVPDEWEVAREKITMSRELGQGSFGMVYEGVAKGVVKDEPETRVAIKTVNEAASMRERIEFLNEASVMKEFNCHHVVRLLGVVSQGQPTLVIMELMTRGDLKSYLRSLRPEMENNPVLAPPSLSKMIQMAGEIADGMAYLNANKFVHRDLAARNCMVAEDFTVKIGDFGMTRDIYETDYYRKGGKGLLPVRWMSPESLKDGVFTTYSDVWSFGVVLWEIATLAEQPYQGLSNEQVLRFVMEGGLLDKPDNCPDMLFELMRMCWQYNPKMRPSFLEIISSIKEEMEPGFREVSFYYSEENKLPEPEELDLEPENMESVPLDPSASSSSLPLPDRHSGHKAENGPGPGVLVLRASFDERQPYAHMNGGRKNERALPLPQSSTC
T2 sequence (P07948 whole entry, species assumed, the tested form may be a part): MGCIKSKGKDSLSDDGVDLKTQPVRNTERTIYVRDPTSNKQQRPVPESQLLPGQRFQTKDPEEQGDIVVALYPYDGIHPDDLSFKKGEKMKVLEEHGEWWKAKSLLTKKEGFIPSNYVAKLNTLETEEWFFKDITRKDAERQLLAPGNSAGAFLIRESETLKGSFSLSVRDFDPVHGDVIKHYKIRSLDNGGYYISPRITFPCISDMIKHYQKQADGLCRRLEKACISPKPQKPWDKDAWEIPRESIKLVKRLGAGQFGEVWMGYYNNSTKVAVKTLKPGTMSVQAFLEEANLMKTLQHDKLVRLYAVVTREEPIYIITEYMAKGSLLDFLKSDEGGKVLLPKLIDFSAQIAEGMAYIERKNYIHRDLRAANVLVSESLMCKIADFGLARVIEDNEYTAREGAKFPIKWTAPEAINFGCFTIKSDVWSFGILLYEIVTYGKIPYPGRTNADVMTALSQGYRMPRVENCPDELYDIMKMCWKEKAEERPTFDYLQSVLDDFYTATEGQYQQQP

SMILES | IC50 (Lck) | IC50 (Lyn) | IC50 (Src) | IC50 (Itk) | IC50 (EGFR) | IC50 (Kdr) | IC50 (Tek) | IC50 (c-Met) | IC50 (IGFR-1) | IC50 (PDGFRB) | IC50 (ErbB4) | IC50 (Ret-1) | IC50 (FGFR1)
COc1cc(Nc2ncnc(-n3c(=O)[nH]c4ccccc43)n2)cc(OC)c1OC [Compound 325] | > 11.4 µM | 8.87 to 11.4 µM | > 11.4 µM | > 11.4 µM | 8.87 to 11.4 µM | < 1.01 µM | > 11.4 µM | > 11.4 µM | > 11.4 µM | < 1.01 µM | 1.01 to 6.09 µM | > 11.4 µM | > 11.4 µM
CCOc1ccc(Nc2ncnc(Nc3ccc(C)c(O)c3)n2)cc1OCC [Compound 121] | 1.05 to 6.29 µM | < 1.05 µM | < 1.05 µM | 9.18 to 11.8 µM | 1.05 to 6.29 µM | < 1.05 µM | > 11.8 µM | 9.18 to 11.8 µM | > 11.8 µM | < 1.05 µM | 1.05 to 6.29 µM | < 1.05 µM | 1.05 to 6.29 µM
COc1ccc(N(C)c2ncnc(Nc3cc(OC)c(OC)c(OC)c3)n2)cc1 [Compound 106] | 6.04 to 8.81 µM |  |  | > 11.3 µM | 1.01 to 6.04 µM | < 1.01 µM | > 11.3 µM | 1.01 to 6.04 µM | 6.04 to 8.81 µM | < 1.01 µM | 6.04 to 8.81 µM | 1.01 to 6.04 µM | 1.01 to 6.04 µM
c1coc(-c2cc(Nc3ncnc(Nc4ccc(N5CCOCC5)cc4)n3)[nH]n2)c1 [Compound 340] | 0.989 to 5.93 µM | 0.989 to 5.93 µM | > 11.1 µM | > 11.1 µM | 5.93 to 8.65 µM | < 0.989 µM | 8.65 to 11.1 µM | < 0.989 µM | < 0.989 µM | 8.65 to 11.1 µM | 0.989 to 5.93 µM | < 0.989 µM | 0.989 to 5.93 µM
COc1ccc(Nc2ncnc(Nc3ccc4[nH]ccc4c3)n2)cc1OC [Compound 115] | 1.1 to 6.62 µM | 6.62 to 9.66 µM | 6.62 to 9.66 µM | 9.66 to 12.4 µM | < 1.1 µM | 1.1 to 6.62 µM | > 12.4 µM | > 12.4 µM | 1.1 to 6.62 µM | > 12.4 µM | > 12.4 µM | 1.1 to 6.62 µM | 6.62 to 9.66 µM
COc1cc(Nc2ncnc(N3CCc4cc([N+](=O)[O-])ccc43)n2)cc(OC)c1OC [Compound 187] | > 10.6 µM | > 10.6 µM | > 10.6 µM | > 10.6 µM | > 10.6 µM | 0.942 to 5.65 µM | > 10.6 µM | > 10.6 µM | > 10.6 µM | > 10.6 µM | 5.65 to 8.25 µM | > 10.6 µM | > 10.6 µM
COc1ccc(Nc2ncnc(Nc3ccc(Oc4ccccc4)cc3)n2)cc1OC [Compound 929] | 0.963 to 5.78 µM |  |  | 0.963 to 5.78 µM | < 0.963 µM | 0.963 to 5.78 µM | > 10.8 µM | < 0.963 µM | 8.42 to 10.8 µM | > 10.8 µM | 0.963 to 5.78 µM | 5.78 to 8.42 µM | > 10.8 µM
COc1cc(Nc2ncnc(Nc3ccc4c(c3)OCO4)n2)cc(OC)c1OC [Compound 252] | < 1.01 µM | < 1.01 µM | < 1.01 µM | 6.04 to 8.81 µM | 1.01 to 6.04 µM | < 1.01 µM | > 11.3 µM | > 11.3 µM | < 1.01 µM | 1.01 to 6.04 µM |  | > 11.3 µM | 1.01 to 6.04 µM
COc1cc(Nc2ncnc(-n3c(Nc4ccccc4)nc4ccccc43)n2)cc(OC)c1OC [Compound 336] | 0.852 to 5.11 µM | 0.852 to 5.11 µM | > 9.58 µM | > 9.58 µM | > 9.58 µM |  | > 9.58 µM | > 9.58 µM | > 9.58 µM | < 0.852 µM | > 9.58 µM | < 0.852 µM | < 0.852 µM
COc1cc(Nc2ncnc(-c3ccccc3)n2)cc(OC)c1OC [Compound 970] | > 13.3 µM | > 13.3 µM | > 13.3 µM | > 13.3 µM | > 13.3 µM | < 1.18 µM | > 13.3 µM | > 13.3 µM | > 13.3 µM | 7.09 to 10.3 µM |  | > 13.3 µM | > 13.3 µM
COc1cc(Nc2ncnc(-n3cc(C)c4ccccc43)n2)cc(OC)c1OC [Compound 323] | 8.94 to 11.5 µM | > 11.5 µM | > 11.5 µM | > 11.5 µM | > 11.5 µM | < 1.02 µM | > 11.5 µM | 8.94 to 11.5 µM | > 11.5 µM | < 1.02 µM |  | > 11.5 µM | > 11.5 µM
COc1cc(Nc2ncnc(Nc3ccc(C(=O)O)cc3)n2)cc(OC)c1OC [Compound 104] | 6.04 to 8.81 µM | > 11.3 µM | 6.04 to 8.81 µM | > 11.3 µM | 1.01 to 6.04 µM | 1.01 to 6.04 µM | > 11.3 µM | > 11.3 µM | 6.04 to 8.81 µM | 1.01 to 6.04 µM |  | > 11.3 µM | > 11.3 µM
COc1ccc(Nc2ncnc(-n3c(N)nc4ccccc43)n2)cc1O [Compound 286] | 1.14 to 6.87 µM | > 12.9 µM | 10 to 12.9 µM | 1.14 to 6.87 µM | 6.87 to 10 µM | < 1.14 µM | 1.14 to 6.87 µM | 1.14 to 6.87 µM | < 1.14 µM | 1.14 to 6.87 µM |  | < 1.14 µM | < 1.14 µM
